Results: paper PMC12557437, “Research towards selective inhibition of the CLK3 kinase” (Beilstein Journal of Organic Chemistry, 2025)
Where “and” joins values, the source holds several entries; their conditions need not be identical. Equal entries are not always repeated. Entries after “also recorded” stand apart in the source; their conditions may differ.

Assays:
Rn_DYRK1A = Rn_DYRK1A (Rattus norvegicus, UniProt Q63470); experiment: radiometric γ33P-ATP kinase assay (Eurofins); format: biochemical; details: 15 µM ATP; dose-response, points in duplicate
Description: (§1) Finally, in order to complete our profiling of VS-77, we then measured its activity against the DYRK 1A, DYRK1B and DYRK2 kinases and the results are reported in Table 3.
(§2) 2- Kinase inhibition studies
(§3) Kinase enzymatic activities were assayed using both luminescent ADP detection assay
(§4) (ADP-GloTM assay kit, Promega, Madison, WI) or radiometric kinase assay. These
(§5) assays were performed using the protocols described in our previous publication. […]
(§6) 1.Brahmaiah, D.; Kanaka Durga Bhavani, A.; Aparna, P.; Sampath Kumar, N.; Solhi,
(§7) H.; Le Guevel, R.; Baratte, B.; Ruchaud, S.; Bach, S.; Singh Jadav, S.; Raji Reddy, C.;
(§8) Roisnel, T.; Mosset, P.; Levoin, N.; Grée, R. Bioorg.
(§9) R.; Baratte, B.; Robert, T.; Ruchaud, S.; Bach, S.; Jadav, S. S.; Reddy, C. R.; Mosset,
(§10) P.; Gouault, N.; Levoin, N.; Grée, R. Molecules 2022, 27, 6149. […]

Hs_DYRK1A = target: T1, Hs_DYRK1A (Homo sapiens, UniProt Q13627); experiment: radiometric γ33P-ATP kinase assay (Eurofins); format: biochemical; details: 15 µM ATP; dose-response, points in duplicate
T1 construct: purchased Eurofins, UK
Description: as §1, §2, §3, §4, §5, §6, §7, §8, §9, §10

DYRK kinases = experiment: radiometric kinase assay, summary for DYRK kinases; format: biochemical; details: DYRK1A, DYRK1B, DYRK2; listed as VS-77
Description: as §1
This point will be discussed in the molecular modeling part below.

CLK1, CLK2, and CLK4 = experiment: radiometric kinase assay, summary for the other CLKs; format: biochemical, mouse; details: Table 2; read-out: inhibition of CLK1, CLK2, and CLK4 (best value)
Description: (§11) The results are reported in Table 2 and in Supporting Information File 1.

Mm_CLK3 = Mm_CLK3 (Mus musculus, UniProt O35492); experiment: radiometric γ33P-ATP kinase assay (Eurofins); format: biochemical; details: 15 µM ATP; dose-response, points in duplicate
Sequence of Mm_CLK3 (O35492 whole entry): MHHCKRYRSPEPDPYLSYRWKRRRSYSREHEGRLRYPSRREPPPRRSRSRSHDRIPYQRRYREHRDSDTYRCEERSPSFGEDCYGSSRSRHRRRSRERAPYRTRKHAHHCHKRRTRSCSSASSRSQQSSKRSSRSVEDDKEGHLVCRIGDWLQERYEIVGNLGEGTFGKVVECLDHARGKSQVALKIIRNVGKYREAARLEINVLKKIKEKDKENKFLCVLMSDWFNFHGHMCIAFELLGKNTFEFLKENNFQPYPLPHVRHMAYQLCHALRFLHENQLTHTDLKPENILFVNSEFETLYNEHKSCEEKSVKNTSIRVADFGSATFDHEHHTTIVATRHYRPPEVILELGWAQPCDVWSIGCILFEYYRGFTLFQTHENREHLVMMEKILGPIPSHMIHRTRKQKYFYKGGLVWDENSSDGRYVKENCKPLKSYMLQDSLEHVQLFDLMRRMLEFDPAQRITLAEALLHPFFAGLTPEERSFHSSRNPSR
Description: as §11, §2, §3, §4, §5, §6, §7, §8, §9, §10

- IC50 (Rn_DYRK1A): 14800 nM
- IC50 (Hs_DYRK1A): 5310 nM
- IC50 (CLK1, CLK2, and CLK4): 60 nM
- IC50 (Mm_CLK3): 300 nM and 303 nM
Structure (SMILES): Cc1ccc(-n2cc(COc3cccc4cnc(Nc5cc(Cl)cc(-c6cccc(C(=O)O)c6)c5)nc34)nn2)c([N+](=O)[O-])c1 [Compound 13b]
- inhibition of DYRK kinases (DYRK kinases): low, but significant inhibition; also recorded: weak inhibitor
